This test has as its system P388 leukemia ip, CD2F1 mice, survival T/C. Kind of test: NCI In Vivo Anticancer Drug Screen. Data for tumor model P388 Leukemia (intraperitoneal) in CD2F1 (CDF1) mice. Particulars: endpoint: median survival time, higher = longer survival. In a few lines: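 Mice carrying the transplanted tumor received test compound or vehicle. Survival was recorded in each group, and the value is the treated-group measurement divided by that of the vehicle-treated control group.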

The mark [1] stands for this setting: dose: 60.0 mg/kg/injection, schedule: Q01DX005 (ip), vehicle: saline with Tween-80.
Where [2] appears, read: dose: 120.0 mg/kg/injection, schedule: Q01DX005 (ip), vehicle: saline with Tween-80.
Where [3] appears, read: dose: 240.0 mg/kg/injection, schedule: Q01DX005 (ip), vehicle: saline with Tween-80.
Setting [4] is: dose: 50.0 mg/kg/injection, schedule: Q01DX005 (ip), vehicle: saline with Tween-80.
Setting [5] is: dose: 100.0 mg/kg/injection, schedule: Q01DX005 (ip), vehicle: saline with Tween-80.
[6] abbreviates: dose: 200.0 mg/kg/injection, schedule: Q01DX005 (ip), vehicle: saline with Tween-80.
Where [7] appears, read: dose: 60.0 mg/kg/injection, schedule: Q01DX005 (ip), vehicle: Klucel (hydroxypropylcellulose) (HPC).
[8] abbreviates: dose: 120.0 mg/kg/injection, schedule: Q01DX005 (ip), vehicle: Klucel (hydroxypropylcellulose) (HPC).
Setting [9] is: dose: 240.0 mg/kg/injection, schedule: Q01DX005 (ip), vehicle: Klucel (hydroxypropylcellulose) (HPC).
Where [10] appears, read: dose: 25.0 mg/kg/injection, schedule: Q01DX009 (ip), vehicle: saline with Tween-80.
[11] abbreviates: dose: 50.0 mg/kg/injection, schedule: Q01DX009 (ip), vehicle: saline with Tween-80.
Where [12] appears, read: dose: 100.0 mg/kg/injection, schedule: Q01DX009 (ip), vehicle: saline with Tween-80.
The mark [13] stands for this setting: dose: 200.0 mg/kg/injection, schedule: Q01DX009 (ip), vehicle: saline with Tween-80.

Our source for the T/C values is PubChem BioAssay AID330 (DTP/NCI, 2004).

Values joined by “and” are separate entries in the source; they are usually repeats but may differ in a detail not shown here. Equal entries are not always repeated. Inconclusive results and toxic doses are left out. Square brackets hold non-standard residues; d marks the D form. Peptide text beside a SMILES is read from it. ξ: configuration not given here. ξPhe(4-N(CH2CH2Cl)2) = NC(Cc1ccc(N(CCCl)CCCl)cc1)C(=O)O

Consider `CC(C)(O)C1CC(=O)C(C)(C2C(O)CC3(C)C4CC=C5C(CCC(O)C5(C)C)C4(C)C(=O)CC23C)O1` (stereo not drawn), for which the T/C reads like this: (dose: 9.63 mg/kg/injection, schedule: Q01DX005 (ip), vehicle: saline + alcohol) 113 % of control; (dose: 19.25 mg/kg/injection, schedule: Q01DX005 (ip), vehicle: saline + alcohol) 102 % of control; (dose: 38.5 mg/kg/injection, schedule: Q01DX005 (ip), vehicle: saline + alcohol) 102 % of control; (dose: 77.0 mg/kg/injection, schedule: Q01DX005 (ip), vehicle: saline + alcohol) 97 % of control.
`OCCN1CCN(Cc2cc(Cl)cc(CN3CCN(CCO)CC3)c2O)CC1`: the T/C was 100 % of control under setting [1], 97 % of control under setting [2] and 100 % of control under setting [3].
As to `COc1cccc2c1C(=O)c1c(O)c3c(c(O)c1C2=O)[C@@H](N=[N+]=[N-])[C@@](O)(C(C)=O)C[C@@H]3OC1CC(N)C(O)C(C)O1` (stereo partly drawn), the T/C by setting is: (dose: 3.13 mg/kg/injection, schedule: Q04DX003 (ip), vehicle: water) 102 % of control; (dose: 6.25 mg/kg/injection, schedule: Q04DX003 (ip), vehicle: water) 111 % of control; (dose: 12.5 mg/kg/injection, schedule: Q04DX003 (ip), vehicle: water) 117 % of control and 120 % of control; (dose: 25.0 mg/kg/injection, schedule: Q04DX003 (ip), vehicle: water) 122 % of control; (dose: 50.0 mg/kg/injection, schedule: Q04DX003 (ip), vehicle: water) 105 % of control and 120 % of control; (dose: 100.0 mg/kg/injection, schedule: Q04DX003 (ip), vehicle: water) 100 % of control.
As to `O=C1C=C2c3ccccc3CC(C(=O)O)C2CC1` (stereo not drawn), the T/C reads like this: under setting [1], 100 % of control; under setting [2], 100 % of control; under setting [3], 102 % of control.
Regarding `Oc1ccc(Cc2ccc(O)cc2)cc1`, the T/C was 102 % of control (dose: 100.0 mg/kg/injection, schedule: Q04DX003 (ip), vehicle: saline with Tween-80); 101 % of control (dose: 200.0 mg/kg/injection, schedule: Q04DX003 (ip), vehicle: saline with Tween-80); 115 % of control (dose: 400.0 mg/kg/injection, schedule: Q04DX003 (ip), vehicle: saline with Tween-80).
Regarding `CCc1nc(N)nc(N)c1-c1ccc(NC(C)c2ccccc2)c([N+](=O)[O-])c1` (stereo not drawn), the T/C is, setting by setting: (dose: 3.75 mg/kg/injection, schedule: Q01DX005 (ip), vehicle: Klucel (hydroxypropylcellulose) (HPC)) 101 % of control; (dose: 7.5 mg/kg/injection, schedule: Q01DX005 (ip), vehicle: Klucel (hydroxypropylcellulose) (HPC)) 101 % of control and 107 % of control; (dose: 15.0 mg/kg/injection, schedule: Q01DX005 (ip), vehicle: Klucel (hydroxypropylcellulose) (HPC)) 112 % of control and 113 % of control.
As to `CC(=O)Oc1cccc2c1ccc1nonc12`, the T/C reads like this: under setting [4], 88 % of control; under setting [5], 88 % of control; under setting [6], 88 % of control.
`O=c1[nH]c2c([N+](=O)[O-])cc(Cl)cc2nc1/C=C(\O)c1cccc2ccccc12`: the T/C is 101 % of control under setting [7], 102 % of control under setting [8] and 105 % of control under setting [9].
As to `COc1cccc2c1C(=O)c1c(O)c3c(c(O)c1C2=O)C[C@@](O)(C(=O)COC(=O)CCCCC(=O)O)C[C@@H]3OC1CC(NC(=O)C(F)(F)F)C(O)C(C)O1` (stereo partly drawn), the T/C is, setting by setting: (dose: 9.38 mg/kg/injection, schedule: Q04DX003 (ip), vehicle: other) 118 % of control; (dose: 18.75 mg/kg/injection, schedule: Q04DX003 (ip), vehicle: other) 123 % of control; (dose: 18.75 mg/kg/injection, schedule: Q04DX003 (ip), vehicle: saline with Tween-80) 119 % of control; (dose: 37.5 mg/kg/injection, schedule: Q04DX003 (ip), vehicle: other) 124 % of control; (dose: 75.0 mg/kg/injection, schedule: Q04DX003 (ip), vehicle: other) 156 % of control; (dose: 150.0 mg/kg/injection, schedule: Q04DX003 (ip), vehicle: other) 194 % of control.
Take `O=[N+]([O-])c1ccc(Cl)c(C(Nc2nncs2)Nc2nncs2)c1`: the T/C by setting is: under setting [7], 91 % of control; under setting [8], 104 % of control; under setting [9], 119 % of control.
For `CC(=O)OC(CCCCCCCCCCCCC(C)C)CC(=O)O` (stereo not drawn), the T/C is, setting by setting: (dose: 8.13 mg/kg/injection, schedule: Q01DX005 (ip), vehicle: Klucel + Tween-80) 102 % of control; (dose: 16.25 mg/kg/injection, schedule: Q01DX005 (ip), vehicle: Klucel + Tween-80) 98 % of control; (dose: 32.5 mg/kg/injection, schedule: Q01DX005 (ip), vehicle: Klucel + Tween-80) 90 % of control; (dose: 65.0 mg/kg/injection, schedule: Q01DX005 (ip), vehicle: Klucel + Tween-80) 90 % of control.
`NC(=O)c1ncnc2nc[nH]c12`: the T/C by setting is: (dose: 1.56 mg/kg/injection, schedule: Q01DX005 (ip), vehicle: saline with Tween-80) 100 % of control and 102 % of control and 96 % of control; (dose: 3.13 mg/kg/injection, schedule: Q01DX005 (ip), vehicle: saline with Tween-80) 100 % of control and 105 % of control; (dose: 12.5 mg/kg/injection, schedule: Q01DX005 (ip), vehicle: saline with Tween-80) 111 % of control and 114 % of control.
For `CCOC(=O)C(Cc1ccc(N(CCCl)CCCl)cc1)NC(=O)C(CCC(=O)O)NC(=O)C(CO)NC(=O)C(CCC(=O)O)NC(=O)C(N)CO` (stereo not drawn) (H-SESE[ξPhe(4-N(CH2CH2Cl)2)]-OEt; configuration not given here), the T/C runs as follows: (dose: 5.0 mg/kg/injection, schedule: Q04DX003 (ip), vehicle: water) 95 % of control; (dose: 10.0 mg/kg/injection, schedule: Q04DX003 (ip), vehicle: water) 106 % of control; (dose: 20.0 mg/kg/injection, schedule: Q04DX003 (ip), vehicle: water) 94 % of control; (dose: 40.0 mg/kg/injection, schedule: Q04DX003 (ip), vehicle: water) 105 % of control and 119 % of control.
In the case of `CC(=O)OC1CCC2(C)C(=CCC3C4CC(C5(O)C(=O)Nc6ccccc65)C(=O)C4(C)CCC32)C1` (stereo not drawn), the T/C is 102 % of control under setting [10], 93 % of control under setting [11] and 94 % of control under setting [12].
Turning to `O=C1CC(O)(c2ccc(-c3ccccc3)cc2)CS1` (stereo not drawn), the T/C was 101 % of control (dose: 100.0 mg/kg/injection, schedule: Q04DX003 (ip), vehicle: Klucel (hydroxypropylcellulose) (HPC)); 99 % of control (dose: 200.0 mg/kg/injection, schedule: Q04DX003 (ip), vehicle: Klucel (hydroxypropylcellulose) (HPC)); 92 % of control (dose: 400.0 mg/kg/injection, schedule: Q04DX003 (ip), vehicle: Klucel (hydroxypropylcellulose) (HPC)).
Consider `O=C(/C=C/c1ccccc1)N1CCCCC1`, for which the T/C under setting [12] was 90 % of control; the T/C under setting [13] was 95 % of control; the T/C (dose: 400.0 mg/kg/injection, schedule: Q01DX009 (ip), vehicle: saline with Tween-80) was 95 % of control.
Regarding `COC(=O)C1(C)CCCC2(C)c3cc(OC)ccc3C(=O)C(Br)C12` (stereo not drawn), the T/C under setting [11] is 103 % of control, the T/C under setting [12] was 100 % of control and the T/C under setting [13] was 112 % of control.
Consider `OC1(O)CCCCN1Cc1ccccc1`, for which the T/C reads like this: (dose: 25.0 mg/kg/injection, schedule: Q01DX005 (ip), vehicle: saline) 103 % of control; (dose: 50.0 mg/kg/injection, schedule: Q01DX005 (ip), vehicle: saline) 101 % of control; (dose: 100.0 mg/kg/injection, schedule: Q01DX005 (ip), vehicle: saline) 100 % of control; (dose: 200.0 mg/kg/injection, schedule: Q01DX005 (ip), vehicle: saline) 107 % of control.
Consider `CNC(=O)SC1=NS(=O)(=O)c2ccc(Cl)cc2N1`, for which the T/C by setting is: under setting [7], 110 % of control; under setting [8], 107 % of control.
As for `C1CCC(N2OC23CCCCC3)CC1` (stereo not drawn), the T/C was 113 % of control under setting [10], 117 % of control under setting [11], 123 % of control under setting [12] and 113 % of control under setting [13].
Consider `CCn1c2ccc([N+](=O)[O-])cc2c2c([N+](=O)[O-])c(-n3cccc3)ccc21`, for which the T/C runs as follows: under setting [4], 95 % of control; under setting [5], 90 % of control; under setting [6], 88 % of control.
